According to ChEMBL document CHEMBL5528001, “Synthetic product-based approach toward potential antileishmanial drug development” (Eur J Med Chem, 2024):

Tests used:
[1] = system: Leishmania donovani; experiment: Antileishmanial activity against Leishmania donovani MHOM/ET/67/HU3 intracellular amastigotes infected in human THP-1 cells assessed as inhibition of parasite growth incubated for 72 hrs by resazurin based colorimetric assay; assay type: functional, organism-based; details: MHOM/ET/67/HU3, THP-1, 72 h
[2] = system: Leishmania donovani; experiment: Antileishmanial activity against Leishmania donovani infected in BALB/c mouse model assessed as reduction in parasite growth at 75 mg/kg, po administered for 5 consecutive days; assay type: functional; parameters: scale not given: the % may be the effect or the level left
[3] = system: Leishmania infantum; experiment: Antileishmanial activity against Leishmania infantum promastigote after 72 hrs by MTT assay; assay type: functional, organism-based
[4] = Cytotoxicity against mouse RAW264.7 cells assessed as reduction in cell viability measured after 48 hrs by MTT assay; assay type: toxicity, cell-based
[5] = system: Leishmania infantum; experiment: Antileishmanial activity against Leishmania infantum MON-1 promastigotes assessed as reduction in parasite viability measured after 48 hrs by MTT assay; assay type: functional, organism-based; details: MON-1, 48 h
[6] = system: HepG2; experiment: Antiproliferative activity against human HepG2 cells assessed as reduction in cell growth measured for 72 hrs by MTT assay; assay type: functional, cell-based; details: HepG2, 72 h
[7] = system: HepG2; experiment: Cytotoxicity against human HepG2 cells assessed as reduction in cell growth measured for 48 hrs by MTT assay; assay type: functional
[8] = Cytotoxicity against mouse J774.A1 cells assessed as reduction in cell viability by MTT assay; assay type: toxicity, cell-based
[9] = system: Leishmania donovani; experiment: Antileishmanial activity against Leishmania donovani promastigotes assessed as inhibition of parasite growth; assay type: functional, organism-based
[10] = system: Leishmania donovani; experiment: Antileishmanial activity against Leishmania donovani amastigotes assessed as inhibition of parasite growth; assay type: functional, organism-based
[11] = system: Leishmania major; experiment: Antileishmanial activity against Leishmania major MHOM/IR/-173 promastigotes assessed as inhibition of parasite growth measured for 24 hrs by resazurin dye-based analysis relative to control; assay type: functional; parameters: scale not given: the % may be the effect or the level left
[12] = system: Leishmania infantum; experiment: Antileishmanial activity against Leishmania infantum amastigotes infected in human THP-1 cells assessed as reduction in parasite growth incubated for 72 hrs by high content imaging analysis; assay type: functional, organism-based; details: THP-1, 72 h
[13] = system: Leishmania donovani; experiment: Antileishmanial activity against Leishmania donovani S1 promastigotes assessed as parasite growth inhibition incubated for 72 hrs by Alamar blue assay; assay type: functional, organism-based; details: S1, 72 h
[14] = system: Leishmania infantum; experiment: Antileishmanial activity against Leishmania infantum MHOM/BR/1972/LD intracellular amastigotes infected in mouse J774A.1 macrophages cells assessed as reduction in parasite viability after 72 hrs by MTT based analysis; assay type: functional, organism-based; details: J774.A1, 72 h
[15] = Cytotoxicity against mouse Peritoneal macrophages assessed as reduction in cell viability incubated for 24 hrs by MTT assay; assay type: toxicity, cell-based, Peritoneal macrophage
[16] = system: Leishmania infantum; experiment: Antileishmanial activity against Leishmania infantum promastigotes infected in BALB/c mouse macrophages assessed as reduction in parasite load in spleen at 7.7 mg/kg, po administered twice as day for 5 days relative to control; assay type: functional; parameters: scale not given: the % may be the effect or the level left; details: time 5 day
[17] = system: Leishmania infantum; experiment: Antileishmanial activity against Leishmania infantum promastigotes infected in BALB/c mouse macrophages assessed as reduction in parasite load in liver at 7.7 mg/kg, po administered twice as day for 5 days relative to control; assay type: functional; parameters: scale not given: the % may be the effect or the level left; details: time 5 day
[18] = system: Leishmania amazonensis; experiment: Antileishmanial activity against Leishmania amazonensis MHOM/BR/1989/166MJO promastigotes infected in mouse peritoneal macrophage assessed as inhibition of parasite growth measured for 24 hrs by MTT assay; assay type: functional, organism-based; details: Peritoneal macrophage cell
[19] = system: Leishmania infantum; experiment: Antileishmanial activity against Leishmania infantum axenic amastigotes (MCAN/ES/89/IPZ229/1/89) assessed as inhibition of parasite proliferation measured after 24 hrs by resazurin dye based fluorescence analysis; assay type: functional, organism-based; details: MCAN/ES/89/IPZ229/1/89, 24 h
[20] = system: Leishmania braziliensis; experiment: Antileishmanial activity against Leishmania braziliensis MHOM/BR/75/M2904 promastigotes assessed as reduction in cell viability incubated for 48 hrs by resazurin staining based assay; assay type: functional, organism-based; details: MHOM/BR/75/M2904, 48 h
[21] = system: Leishmania donovani; experiment: Antileishmanial activity against Leishmania donovani promastigotes infected in golden hamster assessed as reduction in parasite load in spleen at 20 mg/kg administered twice per week for 4 weeks relative to control; assay type: functional; parameters: scale not given: the % may be the effect or the level left
[22] = system: Leishmania donovani; experiment: Antileishmanial activity against Leishmania donovani promastigotes infected in golden hamster assessed as reduction in parasite load in liver at 20 mg/kg administered twice per week for 4 weeks relative to control; assay type: functional; parameters: scale not given: the % may be the effect or the level left
[23] = system: Leishmania amazonensis; experiment: Antileishmanial activity against Leishmania amazonensis WHOM/00LTB001 promastigotes assessed as reduction in parasite growth incubated for 72 hrs by resazurin staining based analysis; assay type: functional, organism-based; details: WHOM/00LTB001, 72 h
[24] = Cytotoxicity against mouse J774.A1 cells assessed as inhibition of cell growth measured for 72 hrs by MTT assay; assay type: toxicity, cell-based
[25] = Cytotoxicity against African green monkey Vero cells assessed as reduction in cell viability measured after 96 hrs by MTS assay; assay type: toxicity, cell-based, Chlorocebus sabaeus
[26] = system: Leishmania donovani; experiment: Antileishmanial activity against Leishmania donovani MHOM/IN/95/9515 promastigotes assessed as inhibition of parasite proliferation measured for 48 hrs by resazurin dye-based analysis relative to control; assay type: functional; parameters: scale not given: the % may be the effect or the level left
[27] = system: Leishmania infantum; experiment: Antileishmanial activity against Leishmania infantum MHOM/BR/70/BH46 promastigotes assessed as reduction in parasite growth incubated for 72 hrs by resazurin staining based analysis; assay type: functional, organism-based; details: MHOM/BR/70/BH46, 72 h
[28] = system: Leishmania donovani; experiment: Antileishmanial activity against Leishmania donovani promastigotes assessed as inhibition of cell growth measured after 3 days by resazurin/alamar blue-staining based analysis; assay type: functional, organism-based; details: 72 h
[29] = system: Trypanosoma brucei; experiment: Antitrypanosomal activity against Trypanosoma brucei assessed as parasite growth inhibition; assay type: functional, organism-based

**Q.** For CC(C)Oc1cc(OCCCCCCCCn2ccnc2)ccc1NC(=N)c1ccccn1, which IC50 [1] is on record?
**A.** 530 nM

**Q.** And the Activity [2]?
**A.** 33%

**Q.** Which IC50 [3] does the source give for O=C(/C=C/c1ccc(F)cc1)c1ccccc1Cl here?
**A.** 74.1 µM

**Q.** And the CC50 at 48 h [4]?
**A.** 479 µM

**Q.** With CCOC(=O)c1cc2c([nH]c3ccccc32)c(-c2cn(-c3ccccc3)nn2)n1 as the compound, how does the EC50 [5] read?
**A.** 4.8 µM

**Q.** And the EC50 [6]?
**A.** 13.6 µM

**Q.** And the CC50 [7]?
**A.** > 200 µM

**Q.** With NC(=S)N/N=C(/C=C/c1cccnc1)c1cccc(NC(=O)Nc2ccc(Cl)cc2)c1 as the compound, how does the IC50 [8] read?
**A.** 3.81 µM

**Q.** Which IC50 [9] does the source give for Cc1cc(O)c(C(=O)Nc2ccccc2)c(=O)n1Cc1ccc(F)cc1 here?
**A.** 55 µM

**Q.** And the IC50 [10]?
**A.** 55.8 µM

**Q.** For O=C(Cn1cnc2ccccc2c1=O)N1CCC2(CC1)OCCO2, which Activity [11] is on record?
**A.** 35%

**Q.** For C/C(=N\Nc1nc(-c2ccc(Br)cc2)cs1)c1ccccn1, which IC50 [12] is on record?
**A.** 430 nM

**Q.** For COc1cccc2c1O/C(=C(/C)c1ncc([N+](=O)[O-])[nH]1)C2=O, which IC50 [13] is on record?
**A.** 16 nM

**Q.** Which EC50 [14] does the source give for NC(=O)N/N=C/c1ccc(Oc2no[n+]([O-])c2-c2ccccc2)cc1 here?
**A.** 3.6 µM

**Q.** And the CC50 at 24 h [15]?
**A.** 500 µM

**Q.** And the Activity [16]?
**A.** 90%

**Q.** What about the Activity [17] of the same compound?
**A.** 90%

**Q.** Which IC50 [18] does the source give for COc1cc(C(=O)/C=C/c2ccc([N+](=O)[O-])cc2)c(C(C)=O)c2c(OC)cccc12 here?
**A.** 18.5 µM

**Q.** Which results are given for CCCCCCCCCn1cc(COC(C)=O)[n+](C)n1?
**A.** IC50 [19]: 5.36 µM; IC50 [20]: 4.55 µM; Activity [21]: 59.8%; Activity [22]: 26.88%

**Q.** With CCc1ccc(NC(=S)N/N=C/c2c[nH]c3c(C)cc(Br)cc23)cc1 as the compound, how does the IC50 [23] read?
**A.** 12.3 µM

**Q.** And the CC50 at 72 h [24]?
**A.** 53.2 µM

**Q.** Which IC50 at 96 h [25] does the source give for O=C(Cn1cnc2cc(Cl)ccc2c1=O)n1cnc2cc(Cl)ccc2c1=O here?
**A.** 30 nM

**Q.** What about the Activity [26] of the same compound?
**A.** 29%

**Q.** For Cc1cc(Br)cc2c(/C=N/NC(=S)Nc3ccccc3)c[nH]c12, which IC50 [27] is on record?
**A.** 5.6 µM

**Q.** For O=c1c2ccccc2nc(/C=C/c2ccc([N+](=O)[O-])cc2)n1-c1ccccc1, which IC50 [28] is on record?
**A.** 20 nM

**Q.** For CCCc1cn(CCN2CCN(C(=O)c3c(C)nc4ccc(C)cn34)CC2)nn1, which IC50 [29] is on record?
**A.** 720 nM
